How the values were obtained:
physchem = details: PBS, pH 7
P-gp [1] = test: in vitro; details: pig, LLC-PK1
P-gp [2] = test: in vitro; details: pig, LLC-PK1; remark: listed apart in the source

SMILES | logD (physchem) | Papp (P-gp [1]) | Papp (P-gp [2])
NC(=O)c1cc(-c2ccc(F)cc2)c2ccc(CN3C(=O)CCC3=O)cc2n1 | 2.24 |  | 
NC(=O)c1cc(-c2ccc(F)cc2)c2ccc(CCc3cncnc3)cc2n1 | 2.31 | 30 ×10⁻⁶ cm/s | 28 ×10⁻⁶ cm/s
NC(=O)c1cc(-c2ccc(F)cc2)c2ccc(CCc3cccnc3)cc2n1 | 2.85 | 21 ×10⁻⁶ cm/s | 22 ×10⁻⁶ cm/s
NC(=O)c1cc(-c2ccc(F)cc2)c2ccc(CCc3ccncc3)cc2n1 | 2.88 | 21 ×10⁻⁶ cm/s | 24 ×10⁻⁶ cm/s
NC(=O)c1cc(-c2ccc(F)cc2)c2ccc(Cc3ccncc3)cc2n1 | 2.7 |  | 
